Data: patent US5858994A, “Carbohydrate conjugates as inhibitors of cell adhesion” (priority 1994, dated 1999)
Read-outs that look alike come from different tables or passages of the source.

Columns and labels:
[1] = hydrolysis in aqueous solution; format: physicochemical; conditions: elimination of maleic acid, C45 H78 N4 O24 formed
P-Selectin = target: T1, P-Selectin (Homo sapiens, UniProt P16109); experiment: Inhibition of HL60 cell adhesion to soluble, recombinant P-selectin (P-selectin-IgG1 fusion protein); format: cell-based
T1 sequence (P16109 42-771): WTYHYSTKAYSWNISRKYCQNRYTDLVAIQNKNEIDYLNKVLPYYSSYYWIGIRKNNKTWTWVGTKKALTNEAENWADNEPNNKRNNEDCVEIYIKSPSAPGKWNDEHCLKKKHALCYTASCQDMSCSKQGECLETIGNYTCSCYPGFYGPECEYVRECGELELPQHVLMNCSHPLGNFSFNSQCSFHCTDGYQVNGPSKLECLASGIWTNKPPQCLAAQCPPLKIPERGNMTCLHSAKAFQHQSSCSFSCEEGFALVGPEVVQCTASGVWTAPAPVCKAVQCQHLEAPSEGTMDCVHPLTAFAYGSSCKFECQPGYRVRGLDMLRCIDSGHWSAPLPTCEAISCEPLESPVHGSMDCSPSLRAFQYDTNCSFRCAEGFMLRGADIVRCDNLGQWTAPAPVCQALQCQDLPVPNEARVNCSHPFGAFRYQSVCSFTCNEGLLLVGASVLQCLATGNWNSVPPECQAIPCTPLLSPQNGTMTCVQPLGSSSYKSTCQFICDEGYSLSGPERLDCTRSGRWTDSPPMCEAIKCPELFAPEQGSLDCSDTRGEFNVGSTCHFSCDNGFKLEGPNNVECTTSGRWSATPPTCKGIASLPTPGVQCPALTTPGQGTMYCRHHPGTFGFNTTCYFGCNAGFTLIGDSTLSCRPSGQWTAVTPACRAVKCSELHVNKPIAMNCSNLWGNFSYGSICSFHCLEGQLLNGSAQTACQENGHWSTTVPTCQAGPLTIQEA
Excerpt: (§1) Carrying out these assays to measure the inhibitory activity of the compounds according to the invention on cell adhesion of promyelocytic cells by means of selecting is described in detail in European Published Application EP 0 601 417.
(§2) In order to test the efficacy of the carbohydrate conjugates on the interaction between the E- and P-selectins (former nomenclature ELAM-1 or GMP-140) with their ligands, an assay is used which in each case is specific only for one of these interactions. The ligands are supplied in their natural form as surface structures on promyelocytic HL60 cells. Since HL60 cells contain ligands and adhesion molecules of very different specificity, the desired specificity of the assay can only be produced by means of the binding component. The binding components used were genetically prepared soluble fusion proteins from the in each case extracytoplasmatic domains of E- or P-selectin and the constant region of a human immunoglobulin of the IgG1 subclass.
Preparation of P-selectin-IgG1
For preparation of the soluble P-selectin-IgG1 fusion protein, the genetic construct "ICD62Rg" published by Aruffo et al., 1991 is used. The further procedure corresponds to the preparation of L-selectin-IgG1 presented under A1.
(§3) 1. 96-well microtiter test plates (Nunc Maxisorb) are incubated at room temperature for 2 hours with 100 μl of a goat anti-human IgG antibody (Sigma) diluted (1+100) in 50 mM Tris pH 9.5. After removing the antibody solution washing is carried out once with PBS.
(§4) 2. 150 μl of the blocking buffer are left in the wells at room temperature for 1 hour. The composition of the blocking buffer is: 0.1% gelatin, 1% BSA, 5% calf serum, 0.2 mM PMSF, 0.02% sodium azide. After removing the blocking buffer washing is carried out once with PBS.
(§5) 3. 100 μl each of cell culture supernatant of appropriately transfected and expressing COS cells are pipetted into the wells. Incubation is carried out at room temperature for 2 hours. After removing the cell culture supernatant washing is carried out once with PBS.
(§6) 4. 20 μl of binding buffer are added to the wells. The binding buffer has the composition: 50 mM HEPES, pH 7.5; 100 mM NaCl; 1 mg/ml BSA; 2 mM MgCl2; 1 mM CaCl2; 3 mM MnCl2; 0.02% sodium azide; 0.2 mM PMSF. 5 μl of the test substance are pipetted into this, mixed by swirling the plate and incubated at room temperature for 10 minutes.
(§7) 5. 50 ml of an HL60 cell culture containing 200,000 cells/ml are centrifuged at 350 g for 4 minutes. The pellet is resuspended in 10 ml of RPMI 1640 and the cells are centrifuged again. For labeling the cells, 50 μg of BCECF-AM (Molecular Probes) are dissolved in 5 μl of anhydrous DMSO; 1.5 ml of RPMI 1640 are then added to the BCECF-AM/DMSO solution. The cells are resuspended using this solution and incubated at 37° C. for 30 minutes. After centrifugation at 350 g for 2 minutes, the labeled cell pellet is resuspended in 11 ml of binding buffer and the resuspended cells are distributed into the microtiter plate wells in 100 μl aliquots. The plate is allowed to stand at room temperature for 10 minutes in order to allow the cells to sediment on the bottom of the test plate. In the course of this, the cells have the opportunity to adhere to the coated plastic.
(§8) 6. To stop the test, the microtiter plate is immersed completely in the stop buffer (25 mM tris, pH 7.5; 125 mM NaCl; 0.1% BSA; 2 mM MgCl2; 1 mM CaCl2; 3 mM MnCl2; 0.02% sodium azide) at an angle of 45°. The stop buffer is removed from the wells by inversion and the procedure is repeated a further two times.
7. Measurement of the BCECF-AM-labeled cells firmly adhering to the wells is carried out in a cytofluorimeter (Millipore) at a sensitivity setting of 4, an excitation wavelength of 485/220 nm and an emission wavelength of 530/250 nm.

E-Selectin = target: T2, E-Selectin (Homo sapiens, UniProt P16581); experiment: Inhibition of HL60 cell adhesion to soluble, recombinant E-selectin (E-selectin-IgG1 fusion protein); format: cell-based
T2 sequence (P16581 22-556): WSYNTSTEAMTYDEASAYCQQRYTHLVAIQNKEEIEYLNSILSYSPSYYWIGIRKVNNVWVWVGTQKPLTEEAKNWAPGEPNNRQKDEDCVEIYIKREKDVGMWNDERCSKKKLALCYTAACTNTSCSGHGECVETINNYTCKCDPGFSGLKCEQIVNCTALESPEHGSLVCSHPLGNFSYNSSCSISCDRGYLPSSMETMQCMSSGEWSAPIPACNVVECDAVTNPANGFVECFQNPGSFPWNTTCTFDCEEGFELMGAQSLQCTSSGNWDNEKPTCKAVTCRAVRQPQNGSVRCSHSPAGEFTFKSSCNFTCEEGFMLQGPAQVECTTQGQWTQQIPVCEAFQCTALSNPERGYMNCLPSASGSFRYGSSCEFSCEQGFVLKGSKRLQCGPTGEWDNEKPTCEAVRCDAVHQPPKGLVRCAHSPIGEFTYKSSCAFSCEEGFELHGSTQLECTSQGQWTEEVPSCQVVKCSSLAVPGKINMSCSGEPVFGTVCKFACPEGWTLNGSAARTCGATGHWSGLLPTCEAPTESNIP
Excerpt: as §1, §2
Preparation of L-selectin-IgG1
For the preparation of soluble L-selectin-IgG1 fusion protein, the genetic construct "ELAM-Rg" published by Walz et al., 1990 was used.
For expression, the plasmid DNA was transfected in COS-7 cells (ATCC) by means of DEAE-dextran (Molecular Biology Methods: see Ausubel, F. M., Brent, R., Kingston, R. E., Moore, D. D., Seidman, J. G., Struhl, K. and Smith, J. A. 1990. Current Protocols in Molecular Biology, John Wiley, New York). Seven days after transfection, the culture supernatant is recovered, freed from cells and cell fragments by centrifugation and transferred to 25 mM HEPES pH 7.0, 0.3 mM PMSF, 0.02% sodium azide and stored at +4° C.
as §3, §4, §5, §6, §7, §8

selectin receptors [2] = conditions: compared with sialyl-Lewis X; cited from earlier work
selectin receptors [3] = experiment: binding to selectin receptors, statements in words
[4] = test system: myocardial reperfusion injuries; conditions: animal experiments; cited from earlier work
[5] = test system: P-selectin-dependent lung injuries; conditions: animal experiments; cited from earlier work
[6] = inhibition of HL60 cell adhesion to soluble, recombinant adhesion molecules; read-out: IC50 P-Selectin
[7] = inhibition of HL60 cell adhesion to soluble, recombinant adhesion molecules; read-out: IC50 E-Selectin

CC(=O)N[C@H]1[C@H](OCCCCCCNC(=O)C2CCC(CNC(=O)/C=C\C(=O)O)CC2)O[C@H](CO)[C@@H](O[C@@H]2O[C@H](CO)[C@H](O)[C@H](O[C@]3(C(=O)O)C[C@H](O)[C@@H](NC(C)=O)[C@H]([C@H](O)[C@H](O)CO)O3)[C@H]2O)[C@@H]1O[C@@H]1O[C@@H](C)[C@@H](O)[C@@H](O)[C@@H]1O (some centres unmarked)
hydrolysis in aqueous solution [1]: slowly hydrolyzes further in aqueous solution

CC(=O)N[C@@H]1[C@@H](O[C@@H]2O[C@@H](C)[C@@H](O)[C@@H](O)[C@@H]2O)[C@H](O[C@@H]2O[C@H](CO)[C@H](O)[C@H](O[C@]3(C(=O)O)C[C@H](O)[C@@H](NC(C)=O)[C@H]([C@H](O)[C@H](O)CO)O3)[C@H]2O)[C@@H](CO)O[C@H]1NC(=O)CCC(CCC(=O)N[C@@H]1O[C@H](CO)[C@@H](O[C@@H]2O[C@H](CO)[C@H](O)[C@H](O[C@]3(C(=O)O)C[C@H](O)[C@@H](NC(C)=O)[C@H]([C@H](O)[C@H](O)CO)O3)[C@H]2O)[C@H](O[C@@H]2O[C@@H](C)[C@@H](O)[C@@H](O)[C@@H]2O)[C@H]1NC(C)=O)(CCC(=O)N[C@@H]1O[C@H](CO)[C@@H](O[C@@H]2O[C@H](CO)[C@H](O)[C@H](O[C@]3(C(=O)O)C[C@H](O)[C@@H](NC(C)=O)[C@H]([C@H](O)[C@H](O)CO)O3)[C@H]2O)[C@H](O[C@@H]2O[C@@H](C)[C@@H](O)[C@@H](O)[C@@H]2O)[C@H]1NC(C)=O)[N+](=O)[O-] [II-1, tris{2-[N-(5-acetamido-3,5-dideoxy-D-glycero-D-galacto-2-nonulopyranosylate)-(2→3)-(β-D-galactopyranosyl)-(1→4)-[(α-L-fucopyranosyl)-(1→3)]-2-acetamido-1,2-dideoxy-β-D-glucopyranose]amidoethyl}nitro-methane]
IC50 (P-Selectin; read-out: IC50 P-Selectin; inhibition of HL60 cell adhesion to soluble, recombinant adhesion molecules): > 800 µM | IC50 (E-Selectin; read-out: IC50 E-Selectin; inhibition of HL60 cell adhesion to soluble, recombinant adhesion molecules): 380 µM

CCCCCCCCCCCCCCCC(=O)N[C@@H](CSCC(COC(=O)CCCCCCCCCCCCCCC)OC(=O)CCCCCCCCCCCCCCC)C(=O)NCCCCCCO[C@@H]1O[C@H](CO)[C@@H](O[C@@H]2O[C@H](CO)[C@H](O)[C@H](O[C@]3(C(=O)O)C[C@H](O)[C@@H](NC(C)=O)[C@H]([C@H](O)[C@H](O)CO)O3)[C@H]2O)[C@H](O[C@@H]2O[C@@H](C)[C@@H](O)[C@@H](O)[C@@H]2O)[C@H]1NC(C)=O (some centres unmarked) [Compound I-13]
IC50 (P-Selectin; [6]): 100 µM | IC50 (E-Selectin; [7]): 20 µM

CSCC[C@H](NC=O)C(=O)N[C@@H](CC(C)C)C(=O)N[C@@H](Cc1ccccc1)C(=O)NCCCCCCO[C@@H]1O[C@H](CO)[C@@H](O[C@@H]2O[C@H](CO)[C@H](O)[C@H](O[C@]3(C(=O)O)C[C@H](O)[C@@H](NC(C)=O)[C@H]([C@H](O)[C@H](O)CO)O3)[C@H]2O)[C@H](O[C@@H]2O[C@@H](C)[C@@H](O)[C@@H](O)[C@@H]2O)[C@H]1NC(C)=O [Compound I-12]
IC50 (P-Selectin; [6]): > 800 µM | IC50 (E-Selectin; [7]): > 800 µM

CC(=O)N[C@@H]1[C@@H](O[C@@H]2O[C@H](CO)[C@H](O)[C@H](O[C@]3(C(=O)O)C[C@H](O)[C@@H](NC(C)=O)[C@H]([C@H](O)[C@H](O)CO)O3)[C@H]2O)[C@H](O[C@@H]2O[C@@H](C)[C@@H](O)[C@@H](O)[C@@H]2O)[C@@H](CO)O[C@H]1O [sialyl-Lewis A]
binding to selectin receptors relative to the X type (selectin receptors [2]): comparable affinity

Arg-Gly-Asp-Ala (RGDA; printed: Arg-Gly-Asp-Ala)
binding of the peptide on its own to selectins (selectin receptors [3]): does not bind

CC(=O)N[C@@H]1[C@@H](O[C@@H]2O[C@@H](C)[C@@H](O)[C@@H](O)[C@@H]2O)[C@H](O[C@@H]2O[C@H](CO)[C@H](O)[C@H](O[C@]3(C(=O)O)C[C@H](O)[C@@H](NC(C)=O)[C@H]([C@H](O)[C@H](O)CO)O3)[C@H]2O)[C@@H](CO)O[C@H]1O [SLeX]
use in myocardial reperfusion injuries [4]: successfully used | use in P-selectin-dependent lung injuries [5]: successfully used
